target: PDE3 enzyme (Homo sapiens (Human), UniProt Q14432); assay: PDE3 inhibition assay (BIOMOL GREEN Quantizyme Assay System); type: biochemical; conditions: PDE3 from platelets isolated from human blood; cAMP substrate; 1 hour at 37° C.; read at 620 nm
Protocol: PDE3 inhibition assay was performed a BIOMOL GREEN™ Quantizyme Assay System (catalogue No. BML-AK800-0001). The Platelets isolated from human blood were used as a source of PDE3 enzyme. 10 mL blood collected in a vacutainer tube (containing K3 EDTA) and centrifuged at 190×g for 15 min at room temperature. Top layer (platelet rich plasma) collected, centrifuged at 2500 g for 5 min at 22° C. (Room temp.) The pellet was washed with 2 ml of 50 mM tris buffer (pH-7.4) containing 1 mM MgCl2 and centrifuged at 2500 g for 5 min. Then 200 μl of assay buffer (from PDE kit, Enzo Life Sciences) was added to the pellet and sonicated at 30 s per ml. Pellet was freeze thawed for three times (−80° C.) in order to rupture the platelet membrane and release the PDE enzyme. Then the cell homogenate was centrifuged at 2500 rpm for 5 min. Supernatant was collected and used as source for PDE3 enzyme. In 96 well plate (Prod. No. BML-KI101), we added supernatant having PDE3 enzyme, PDE3 assay buffer, cAMP substrate, 5′ nucleotidase and test or standard compound and incubated for 1 hour at 37° C. The reaction was arrested by the addition 100 μl BIOMOL GREEN reagent incubated in room temp for 20 min. The green color developed was measured at 620 nm.
The in vitro Phosphodiestarase (PDE3) inhibitory activity of compounds 1a-q, were measured using a BIOMOL GREEN™ Quantizyme Assay System (catalogue No. BML-AK800-0001). The basic principle for this assay is the cleavage of c-AMP or c-GMP into their respective nucleotide by a cyclic nucleotide phosphodiesterase. The nucleotide (AMP or GMP) released is further cleaved into the nucleoside and phosphate by the enzyme 5′-nucleotidase. The extent of phosphate released is directly proportional to the PDE activity. In this screening method, the released phosphate by the enzymatic cleavage is quantified using BIOMOL GREEN reagent in a modified malachite green assay. The resulting green colour with λmax at 620 nm is directly proportional to the released phosphate and then PDE activity.

PDE3 enzyme, sequence (Q14432 whole entry): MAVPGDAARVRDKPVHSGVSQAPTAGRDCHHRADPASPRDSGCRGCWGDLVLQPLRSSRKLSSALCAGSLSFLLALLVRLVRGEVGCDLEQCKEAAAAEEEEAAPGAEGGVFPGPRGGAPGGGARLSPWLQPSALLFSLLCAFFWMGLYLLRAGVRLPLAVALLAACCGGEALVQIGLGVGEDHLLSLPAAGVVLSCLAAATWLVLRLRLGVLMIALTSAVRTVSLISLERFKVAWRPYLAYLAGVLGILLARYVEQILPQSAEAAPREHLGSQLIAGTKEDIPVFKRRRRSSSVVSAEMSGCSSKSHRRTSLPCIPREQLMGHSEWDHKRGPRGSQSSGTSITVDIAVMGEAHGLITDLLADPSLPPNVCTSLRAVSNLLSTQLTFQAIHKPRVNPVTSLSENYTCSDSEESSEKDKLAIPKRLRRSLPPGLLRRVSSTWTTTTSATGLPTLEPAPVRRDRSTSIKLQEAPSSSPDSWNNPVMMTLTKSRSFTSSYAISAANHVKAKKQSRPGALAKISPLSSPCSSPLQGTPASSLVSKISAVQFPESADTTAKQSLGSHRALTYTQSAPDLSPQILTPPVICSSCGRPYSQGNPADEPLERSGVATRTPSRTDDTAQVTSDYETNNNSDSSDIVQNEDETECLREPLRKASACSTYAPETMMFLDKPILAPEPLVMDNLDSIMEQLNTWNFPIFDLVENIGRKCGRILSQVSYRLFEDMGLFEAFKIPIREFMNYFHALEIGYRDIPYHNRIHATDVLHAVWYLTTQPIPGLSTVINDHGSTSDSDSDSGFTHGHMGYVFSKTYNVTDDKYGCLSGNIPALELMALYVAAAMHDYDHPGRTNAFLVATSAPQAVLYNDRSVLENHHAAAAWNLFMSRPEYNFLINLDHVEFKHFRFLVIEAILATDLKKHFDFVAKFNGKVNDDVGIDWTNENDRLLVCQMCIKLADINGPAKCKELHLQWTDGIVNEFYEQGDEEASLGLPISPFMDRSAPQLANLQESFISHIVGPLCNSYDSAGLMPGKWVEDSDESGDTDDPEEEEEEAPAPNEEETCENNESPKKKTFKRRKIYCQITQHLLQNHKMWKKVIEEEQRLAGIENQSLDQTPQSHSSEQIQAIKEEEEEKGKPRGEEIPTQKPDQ

Row | Structure (SMILES) | IC50 [nM]
1 | Cn1c(=O)c2cc(Cc3ccc(Cl)cc3)c(=O)[nH]c2n(C)c1=O [Compound 1g, 6-(4-Chlorobenzyl)-1,3-dimethyl-1,2,3,4,7,8-hexahydropyrido[2,3-d]pyrimidine-2,4,7-trione] | 12.5
2 | Cn1c(=O)c2cc(Cc3cccc(F)c3)c(=O)[nH]c2n(C)c1=O [Compound 1c, 6-(3-Fluorobenzyl)-1,3-dimethyl-1,2,3,4,7,8-hexahydropyrido[2,3-d]pyrimidine-2,4,7-trione] | 32.3
3 | Cn1c(=O)c2cc(Cc3ccc(Br)cc3)c(=O)[nH]c2n(C)c1=O [Compound 1k, 6-(4-Bromobenzyl)-1,3-dimethyl-1,2,3,4,7,8-hexahydropyrido[2,3-d]pyrimidine-2,4,7-trione] | 4.8
4 | Cn1c(=O)c2cc(Cc3ccccc3)c(=O)[nH]c2n(C)c1=O [Compound 1a, 6-Benzyl-1,3-dimethyl-1,2,3,4,7,8-hexahydropyrido[2,3-d]pyrimidine-2,4,7-trione] | 11800
5 | Cn1c(=O)c2cc(Cc3ccccc3F)c(=O)[nH]c2n(C)c1=O [Compound 1b, 6-(2-Fluorobenzyl)-1,3-dimethyl-1,2,3,4,7,8-hexahydropyrido[2,3-d]pyrimidine-2,4,7-trione] | 48.8
6 | Cn1c(=O)c2cc(Cc3ccccc3Br)c(=O)[nH]c2n(C)c1=O [Compound 1i, 6-(2-Bromobenzyl)-1,3-dimethyl-1,2,3,4,7,8-hexahydropyrido[2,3-d]pyrimidine-2,4,7-trione] | 6.6
